Assay results: patent US12151028B2, “Drug delivery systems comprising solid solutions of weakly basic drugs” (Adare Pharmaceuticals, Inc., priority 2006, dated 2024)
Values after ≈ are worked out from the molar mass of the structure shown. Counter-ions that a name gives are not always drawn. Like-named read-outs stand apart in the source and are kept apart here.

Assays:
[1] = Turbidity measurements (transmittance of drug/polymer solutions in pH 6.0 buffer); type: physicochemical; conditions: buffer pH 6.0 containing Kollidon VA 64, Methocel E5, PEG 6000, cyclodextrin or Kollidon 14 PF; drug:polymer 1:2
Experimental: A concentrated solution (3 mL) of lercanidipine hydrochloride in acetone (0.5 mg/ml) was added to 200 mL of a buffer solution (pH 6.0) containing Kollidon VA 64, Methocel E5 (hypromellose), polyethylene glycol (PEG 6000), cyclodextrin or Kollidon 14 PF (polyvinyl pyrrolidone) at the ratio of 1:2 by weight with respect to the polymer.

[2] = Intrinsic dissolution rate measurements; type: physicochemical; conditions: crystalline polymorphs (Polymorph I, Polymorph II)
Experimental: Intrinsic dissolution rates were determined for two different polymorphs of lercanidipine hydrochloride as well as amorphous materials (e.g., amorphous drug and 1:2 solid solutions of lercanidipine hydrochloride with Methocel E5 and Kollidon VA 64).

[3] = physchem

COC(=O)C1=C(C)NC(C)=C(C(=O)OC(C)(C)CN(C)CCC(c2ccccc2)c2ccccc2)C1c1cccc([N+](=O)[O-])c1 (centres unmarked) [lercanidipine hydrochloride]
Stability of drug solution against crystallization (turbidity) [1]: improved stability | Intrinsic dissolution rate and extent of dissolution [2]: poor dissolution rates

O=C1CN=C(c2ccccc2Cl)c2cc([N+](=O)[O-])ccc2N1 [Clonazepam, clonazepam]
solubility ([3]; pH 2.84, aqueous buffer): 29 µg/mL (≈ 91.9 µM) | solubility ([3]; pH 2.92, aqueous buffer): 23 µg/mL (≈ 72.9 µM) | solubility ([3]; pH 3, aqueous buffer): 22 µg/mL (≈ 69.7 µM) | solubility ([3]; pH 3.32, aqueous buffer): 21 µg/mL (≈ 66.5 µM) | solubility ([3]; pH 4.21, aqueous buffer): 18 µg/mL (≈ 57 µM) | solubility ([3]; pH 6.39, aqueous buffer): 18 µg/mL (≈ 57 µM)

Cc1nccn1CC1CCc2c(c3ccccc3n2C)C1=O (centres unmarked) [Ondansetron Hydrochloride, ondansetron hydrochloride]
Solubility of Ondansetron Hydrochloride in Fumaric Acid (fumaric acid 0.25 mg/mL, start pH 2.79, end pH 2.75): 26200 µg/mL | Solubility of Ondansetron Hydrochloride in Fumaric Acid (pH 2.13): 26900 µg/mL | Solubility of Ondansetron Hydrochloride in Fumaric Acid (pH 3.49): about 26 mg/mL
